Measured values reported in patent publication US20070259907A1, “ARYL AND ARYLALKYLENYL SUBSTITUTED THIAZOLOQUINOLINES AND THIAZOLONAPHTHYRIDINES” (priority 2004, published 2007).

| melting point [°C] | SMILES |
| --- | --- |
| 186 to 188 | CCCc1nc2c(N)nc3cc(-c4cccc(CO)c4)ccc3c2s1 [Example 1, [3-(4-Amino-2-propylthiazolo[4,5-c]quinolin-7-yl)phenyl]methanol] |
| 228 to 231 | CCCc1nc2c(N)nc3cc(-c4cccc(NS(C)(=O)=O)c4)ccc3c2s1 [Example 2, N-[3-(4-Amino-2-propylthiazolo[4,5-c]quinolin-7-yl)phenyl]methanesulfonamide] |
| 216 to 219 | CCCc1nc2c(N)nc3cc(-c4ccccc4CO)ccc3c2s1 [Example 3, [2-(4-Amino-2-propylthiazolo[4,5-c]quinolin-7-yl)phenyl]methanol] |
| 190 to 193 | CCCc1nc2c(N)nc3cc(-c4cccc(C(=O)N5CCOCC5)c4)ccc3c2s1 [Example 4, 7-[3-(Morpholin-4-ylcarbonyl)phenyl]-2-propylthiazolo[4,5-c]quinolin-4-amine] |
| 169 to 172 | CCCc1nc2c(N)nc3cc(-c4cccc(C(=O)N(CC)CC)c4)ccc3c2s1 [Example 42, 3-(4-Amino-2-propylthiazolo[4,5-c]quinolin-7-yl)-N,N-diethylbenzamide] |
| 177 to 180 | CCCc1nc2c(N)nc3cc(-c4cccc(C(=O)N5CCCC5)c4)ccc3c2s1 [Example 43, 2-Propyl-7-[3-(pyrrolidin-1-ylcarbonyl)phenyl]thiazolo[4,5-c]quinolin-4-amine] |
| 252 to 255 | CCCc1nc2c(N)nc3cc(-c4ccc(NC(C)=O)cc4)ccc3c2s1 [Example 44, N-[4-(4-Amino-2-propylthiazolo[4,5-c]quinolin-7-yl)phenyl]acetamide] |
| 251 to 254 | CCCc1nc2c(N)nc3cc(-c4cccc(C(=O)NC5CC5)c4)ccc3c2s1 [Example 45, 3-(4-Amino-2-propylthiazolo[4,5-c]quinolin-7-yl)-N-cyclopropylbenzamide] |
| 206 to 209 | CCCc1nc2c(N)nc3cc(-c4ccccc4NC(C)=O)ccc3c2s1 [Example 46, N-[2-(4-Amino-2-propylthiazolo[4,5-c]quinolin-7-yl)phenyl]acetamide] |
| 274 to 276 | CCCc1nc2c(N)nc3cc(-c4ccccc4C(N)=O)ccc3c2s1 [Example 47, 2-(4-Amino-2-propylthiazolo[4,5-c]quinolin-7-yl)benzamide] |
| 242 to 245 | CCCc1nc2c(N)nc3cc(-c4cccc(S(C)(=O)=O)c4)ccc3c2s1 [Example 48, 7-[3-(Methylsulfonyl)phenyl]-2-propylthiazolo[4,5-c]quinolin-4-amine] |
| 173 to 176 | CCCc1nc2c(N)nc3cc(-c4cccc(NC(C)=O)c4)ccc3c2s1 [Example 49, N-[3-(4-Amino-2-propylthiazolo[4,5-c]quinolin-7-yl)phenyl]acetamide] |
| 168 to 171 | CCCc1nc2c(N)nc3cc(-c4cccc(CN)c4)ccc3c2s1 [Example 50, 7-(3-Aminomethylphenyl)-2-propylthiazolo[4,5-c]quinolin-4-amine] |
| 181 to 184 | CCCc1nc2c(N)nc3cc(-c4ccc(F)cc4CN)ccc3c2s1 [Example 51, 7-[2-(Aminomethyl)-4-fluorophenyl)-2-propylthiazolo[4,5-c]quinolin-4-amine] |
| 252 to 255 | CCCc1nc2c(N)nc3ccc(-c4cccc(S(C)(=O)=O)c4)cc3c2s1 [Example 134, 8-[3-(Methylsulfonyl)phenyl]-2-propylthiazolo[4,5-c]quinolin-4-amine] |
| 242 to 245 | CCCc1nc2c(N)nc3ccc(-c4cccc(NC(C)=O)c4)cc3c2s1 [Example 135, N-[3-(4-Amino-2-propylthiazolo[4,5-c]quinolin-8-yl)phenyl]acetamide] |
| 198 to 201 | CCCc1nc2c(N)nc3ccc(-c4ccc(F)cc4CN)cc3c2s1 [Example 136, 8-[2-(Aminomethyl)-4-fluorophenyl]-2-propylthiazolo[4,5-c]quinolin-4-amine] |
| 251 to 254 | CCCc1nc2c(N)nc3ccc(-c4ccc(NC(C)=O)cc4)cc3c2s1 [Example 137, N-[4-(4-Amino-2-propylthiazolo[4,5-c]quinolin-8-yl)phenyl]acetamide] |
| 244 to 246 | CCCc1nc2c(N)nc3ccc(-c4cccc(NS(C)(=O)=O)c4)cc3c2s1 [Example 138, N-[3-(4-Amino-2-propylthiazolo[4,5-c]quinolin-8-yl)phenyl]methanesulfonamide] |
| 194 to 196 | CCCc1nc2c(N)nc3ccc(-c4ccccc4CO)cc3c2s1 [Example 139, [2-(4-Amino-2-propylthiazolo[4,5-c]quinolin-8-yl)phenyl]methanol] |
| 176 to 177 | CCCc1nc2c(N)nc3ccc(-c4cccc(CO)c4)cc3c2s1 [Example 140, [3-(4-Amino-2-propylthiazolo[4,5-c]quinolin-8-yl)phenyl]methanol] |
| 212 to 214 | CCCc1nc2c(N)nc3ccc(-c4ccc(CO)cc4)cc3c2s1 [Example 141, [4-(4-Amino-2-propylthiazolo[4,5-c]quinolin-8-yl)phenyl]methanol] |
| 189 to 191 | CCCc1nc2c(N)nc3ccc(-c4cccc(CN)c4)cc3c2s1 [Example 142, 8-[3-(Aminomethyl)phenyl]-2-propylthiazolo[4,5-c]quinolin-4-amine] |
| 225 to 226 | CCCc1nc2c(N)nc3ccc(-c4ccc(CN)cc4)cc3c2s1 [Example 143, 8-[4-(Aminomethyl)phenyl]-2-propylthiazolo[4,5-c]quinolin-4-amine] |
